SMILES strings stand for the structures.

In this assay the test system is Vaccinia-infected cells, mCherry/Venus stage reporter fluorescence. In words: inhibition of vaccinia stage-reporter fluorescence – cell-based, dry powder, dose response (AID 1053166).
On to `Cc1ccc(-c2ccc(CN(C)C[C@@H]3Oc4cc(C#C[C@@H](C)O)ccc4S(=O)(=O)N([C@@H](C)CO)C[C@@H]3C)cc2)cc1`, for which the AC50 is 1.79 µM. Turning to `Cc1cccc(-c2ccc(CN(C)C[C@@H]3Oc4cc(C#C[C@@H](C)O)ccc4S(=O)(=O)N([C@@H](C)CO)C[C@@H]3C)cc2)c1`, the AC50 is 2.37 µM.

For the compound `Cc1ccccc1-c1ccc(CN(C)C[C@@H]2Oc3cc(C#C[C@@H](C)O)ccc3S(=O)(=O)N([C@@H](C)CO)C[C@@H]2C)cc1`, the AC50 was 1.15 µM. Regarding `C[C@@H](O)C#Cc1ccc2c(c1)O[C@@H](CN(C)Cc1ccc(-c3ccccc3Cl)cc1)[C@@H](C)CN([C@@H](C)CO)S2(=O)=O`, the concentration at half-maximal activity (AC50) was 0.992 µM.
